Like-named read-outs stand apart in the source and are kept apart here.
Experiments:
[1] = Longitudinal blood concentration / body burden in Yusho cohort 2002-2010, second-order regression of log body burden; type: in vivo, human (Yusho patients)
Text: The subjects were 354 patients whose blood concentration of 2,3,4,7,8-PeCDF had been measured three or more times at annual Yusho medical checkups between 2002 and 2010, i.e., 34–42 years since exposure, and for whom the period from the first to last measurement was over 4 years. We examined two chemicals: 2,3,4,7,8-PeCDF, which is the causative chemical, and octachlorodibenzodioxin (OCDD), which is a chemical found in Yusho patients but less commonly in the general public. This research was approved by Nara Medical University Ethics Committee (No. 281–2).
For the logarithm of body burden, which was calculated from concentration and weight, we examined the second derivative by second-order regression. The body burden Cit of patient i at time t is given by:1 logCit=βi+α1t+α2t^2+γ1w1it+γ2w2it
where t is the time, with t = 0 denoting 2006 (middle of the observation period), α2 is the coefficient for a second-order derivative, α1 is the first-order derivative at time t = 0, βi is the reference value for each individual, W1it is the weight and W2it is the lipid in blood (%) of patient i at time t, and γj is the coefficient for weight and lipid in blood. Aylward et al. used an estimate of body fat as volume of distribution, but we used weight and lipid in blood.
We combined all observed concentrations into equation (2):2 y=X⋅β+T⋅α+W⋅γ+ε
where y is the vector of the logarithm of dioxins and dioxin-like compounds in blood lipid concentration, Xβ is the base concentration for each patient, Tα is the change in time, Wγ is an adjustment term according to weight and lipid in blood, and ε is an observation error. X is a matrix with the total number of measurements rows and number of patient columns. T is a matrix with the total number of measurement rows and two columns, second-order and first-order for time. W is the matrix with the total number of measurement rows and two columns, weight and lipid. Equation (3) is a matrix form:3 y=XTWβαγ+ε
By solving multiple linear regressions with the lm function in R, we could estimate first- and second-order derivatives. It was assumed that patients in the same group had same trend with regard to time. […] For the case of one patient and no second-order coefficient measurements, equation (3) equals leads to an equation for estimation of decay rate:4 ka=lnCt2−lnCt1/Δt
We estimated the first- and second-order coefficients, equivalent to the decay rate and change in decay rate, for OCDD and 2,3,4,7,8-PeCDF for each patient group shown in Table 1.

[2] = cited from earlier work
[3] = patient group 2,3,4,7,8-PeCDF concentration range 0–10 pg/g lipid
[4] = patient group concentration range 0–10 pg/g lipid
[5] = patient group concentration range 10–20 pg/g lipid
[6] = patient group concentration range 20–50 pg/g lipid
[7] = patient group concentration range 50–100 pg/g lipid
[8] = patient group concentration range >100 pg/g lipid

SMILES	Second-order coefficient (equivalent to minus change in apparent elimination rate in 2006) [1, 3]	First-order coefficient (equivalent to minus apparent elimination rate) [1, 4]	First-order coefficient (equivalent to minus apparent elimination rate) [1, 5]	Second-order coefficient (equivalent to minus change in apparent elimination rate in 2006) [1, 5]	First-order coefficient (equivalent to minus apparent elimination rate) [1, 6]	Second-order coefficient (equivalent to minus change in apparent elimination rate in 2006) [1, 6]	First-order coefficient (equivalent to minus apparent elimination rate) [1, 7]	Second-order coefficient (equivalent to minus change in apparent elimination rate in 2006) [1, 7]	First-order coefficient (equivalent to minus apparent elimination rate) [1, 8]	Second-order coefficient (equivalent to minus change in apparent elimination rate in 2006) [1, 8]	apparent half-life ([2]; Yusho patients with blood 2,3,4,7,8-PeCDF ≥50 pg/g lipid, first of two groups)	change in blood levels over time ([2]; Yusho patients with blood 2,3,4,7,8-PeCDF ≥50 pg/g lipid, second of two groups)	apparent half-life ([2]; Yusho patients, group that became larger since medical checkups began)	apparent half-life ([2]; Yusho patients, group that became smaller since medical checkups began)
Clc1c(Cl)c(Cl)c2c(c1Cl)Oc1c(Cl)c(Cl)c(Cl)c(Cl)c1O2 [OCDD, octachlorodibenzodioxin]	−0.006366	−0.01433	−0.01954	−0.003289	−0.02054	−0.001897	−0.01224	−0.002991	−0.009034	−0.004341				
Clc1cc2oc3c(Cl)c(Cl)c(Cl)cc3c2cc1Cl [2,3,4,7,8-PeCDF, 2,3,4,7,8-pentachlorodibenzofuran]	−0.000596	−0.004032	−0.000462	0.000464	0.001669	0.000643	−0.005452	0.002124	−0.008294	0.001436	≈ 10 years	no reduction	near infinite	around 10 years

Source: paper PMC5015216, “Change in decay rates of dioxin-like compounds in Yusho patients” (Environmental Health, 2016)
